Earlier results as cited in patent US20070060557A1, “Superoxide dismutase mimics for the treatment of optic nerve and retinal damage” (priority 2003, published 2007).

Legend:
[1] = tested on: light-induced retinal damage in albino rats; settings: albino rats (Wang et al. 1995)
[2] = tested on: rat ocular ischemia-reperfusion model; settings: intravitreal injections (Rios et al. 1999)

| SMILES | light-induced retinal damage [1] | functional protection [2] [%] |
| --- | --- | --- |
| CC1(C)CC(O)CC(C)(C)N1[O] [4-hydroxy-2,2,6,6-tetramethylpiperidine-1-oxyl] | inhibited light-induced retinal damage |  |
| CNC(=S)NC [dimethylthiourea] |  | 40 |
